Where a name gives a salt, the structure may show the parent alone. Read-outs that look alike come from different tables or passages of the source. Non-standard residues stand in square brackets, D forms with d. Residues, ends and D or L forms follow the SMILES beside them. pGlu = O=C1CC[C@@H](C(=O)O)N1; Thz = O=C(O)[C@@H]1CSCN1
Assays:
human NTCP [1] = target: T1, human NTCP (Homo sapiens, UniProt Q14973); test: Screening fluorescent competitive Myrcludex B-FITC binding assay (96-well, 10 µM drug)
T1 sequence (Q14973 1-349): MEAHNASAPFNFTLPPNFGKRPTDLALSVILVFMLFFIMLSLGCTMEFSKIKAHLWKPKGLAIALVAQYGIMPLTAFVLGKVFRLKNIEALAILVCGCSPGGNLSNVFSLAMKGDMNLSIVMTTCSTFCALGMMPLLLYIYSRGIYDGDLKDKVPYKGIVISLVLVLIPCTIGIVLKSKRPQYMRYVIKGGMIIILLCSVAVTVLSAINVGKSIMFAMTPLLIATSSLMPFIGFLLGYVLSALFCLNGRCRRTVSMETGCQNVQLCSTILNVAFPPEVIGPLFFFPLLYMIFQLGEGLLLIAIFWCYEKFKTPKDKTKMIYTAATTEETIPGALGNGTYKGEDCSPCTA

human NTCP [2] = target: T1, human NTCP; test: Screening taurocholate uptake assay (96-well, [14C]taurocholate, 10 µM drug)
[3] = Prestwick library screen, Myrcludex B-FITC binding, 10 µM drug
[4] = Prestwick library screen, taurocholate uptake, 10 µM drug
[5] = ranking score beside the functional and binding assay B-scores of the screen
[6] = Prestwick library screen, 10 µM drug, B-score of Myrcludex B-FITC binding
[7] = Prestwick library screen, 10 µM drug, B-score of taurocholate uptake
[8] = combined ranking from functional and binding assay B-scores
[9] = screen, 10 µM drug, Myrcludex B-FITC binding
[10] = combined ranking from functional and binding screening assays
[11] = screen, 10 µM drug, taurocholate uptake

SMILES	B-score binding assay (human NTCP [1]; [3])	B-score functional assay (human NTCP [2]; [4])	Ranking score (human NTCP [2]; [5])	B-score binding assay (human NTCP [1]; [6])	B-score functional assay (human NTCP [2]; [7])	Ranking score (human NTCP [2]; [8])	also measured
COc1ccc(C(=O)NCc2cccnc2)cc1C(=O)NCc1cccnc1.O [Picotamide monohydrate]	0.672	-0.041	752.987				
C=C(C)[C@@H]1[C@H]2OC(=O)[C@@H]1[C@]1(O)C[C@H]3O[C@]34C(=O)O[C@H]2[C@]14C [Picrotoxinin]	0.17	0.075	754.999				
O=C1CC[C@@H](C(=O)N2CSC[C@H]2C(=O)O)N1 [Pidotimod] ([pGlu]-[Thz]-OH)				0.063	1.132	884.212	
CC[C@@H]1C(=O)OC[C@@H]1Cc1cncn1C [Pilocarpine nitrate]				0.358	0.794	931.987	
CC(N/C(=N\C#N)Nc1ccncc1)C(C)(C)C (stereo not drawn) [Pinacidil]							B-score binding assay (human NTCP [1]; [9]): -0.477; Ranking score (human NTCP [2]; [10]): 332.839; B-score functional assay (human NTCP [2]; [11]): -0.832
CC(C)NCC(O)COc1cccc2[nH]ccc12 (stereo not drawn) [Pindolol]	0.992	-0.046	777.082				
CCn1cc(C(=O)O)c(=O)c2cnc(N3CCNCC3)nc21 [Pipemidic acid]	0.325	-0.002	736.261				
CC[N+]1(C)CCCC(OC(=O)C(O)(c2ccccc2)c2ccccc2)C1 (stereo not drawn) [Pipenzolate bromide]				0.291	2.623	1014.24	
CCN1CCCC(OC(=O)C(c2ccccc2)c2ccccc2)C1 (stereo not drawn) [Piperidolate hydrochloride]							B-score binding assay (human NTCP [1]; [9]): -1.968; Ranking score (human NTCP [2]; [10]): 357.281; B-score functional assay (human NTCP [2]; [11]): 1.475
NC(=O)CN1CCCC1=O [Piracetam]	-0.345	0.881	661.843				
Cc1nc2ccccn2c(=O)c1CCN1CCC(C(=O)c2ccc(F)cc2)CC1 [Pirenperone]	3.342	-0.092	829.554				
CN1CCN(CC(=O)N2c3ccccc3C(=O)Nc3cccnc32)CC1 [Pirenzepine dihydrochloride]				0.089	0.753	857.349	
Cl.c1cnc(N2CCN(Cc3ccc4c(c3)OCO4)CC2)nc1 [Piribedil hydrochloride]				0.754	0.676	974.49	
CCn1cc(C(=O)O)c(=O)c2cnc(N3CCCC3)nc21 [Piromidic acid]				0.041	1.197	874.684	
CN1C(C(=O)Nc2ccccn2)=C(O)c2ccccc2S1(=O)=O [Piroxicam]	-0.312	0.754	662.993				
CC(C)(C)C(=O)OCOC(=O)[C@@H]1N2C(=O)[C@@H](/N=C/N3CCCCCC3)[C@H]2SC1(C)C [Pivmecillinam hydrochloride]	0.838	-0.103	729.338				
CN1CCC(=C2c3ccccc3CCc3sccc32)CC1.O=C(O)CC(O)C(=O)O [Pizotifen malate]	0.057	0.156	745.131				
CCCN[C@H]1CCc2nc(N)sc2C1 [Pramipexole dihydrochloride]							B-score binding assay (human NTCP [1]; [9]): -0.164; Ranking score (human NTCP [2]; [10]): 303.528; B-score functional assay (human NTCP [2]; [11]): -1.48
CCCCOc1ccc(OCCCN2CCOCC2)cc1 [Pramoxine hydrochloride]				0.619	1.223	1022.18	

SMILES	B-score binding assay (human NTCP [1]; [3])	B-score functional assay (human NTCP [2]; [4])	Ranking score (human NTCP [2]; [5])	B-score binding assay (human NTCP [1]; [6])	B-score functional assay (human NTCP [2]; [7])	Ranking score (human NTCP [2]; [8])	also measured
CC(C(=O)O)c1ccc2c(c1)Cc1cccnc1O2 (stereo not drawn) [Pranoprofen]	1.204	-0.016	817.912				
C[C@]12C=CC(=O)C=C1CC[C@@H]1[C@@H]2C(=O)C[C@@]2(C)[C@H]1CC[C@]2(O)C(=O)CO [Prednisone]							B-score binding assay (human NTCP [1]; [9]): 0.54; Ranking score (human NTCP [2]; [10]): 427.034; B-score functional assay (human NTCP [2]; [11]): -1.367
CC(C)C[C@H](CN)CC(=O)O [Pregabalin]				0.027	1.204	863.391	
CC(=O)[C@H]1CC[C@H]2[C@@H]3CC=C4C[C@@H](O)CC[C@]4(C)[C@H]3CC[C@]12C [Pregnenolone]							B-score binding assay (human NTCP [1]; [9]): 0.35; Ranking score (human NTCP [2]; [10]): 297.104; B-score functional assay (human NTCP [2]; [11]): -2.394
CC(Cc1ccccc1)NCCC(c1ccccc1)c1ccccc1 (stereo not drawn) [Prenylamine lactate]				0.388	1.102	975.256	
CS(=O)(=O)O.OC(CCN1CCCCC1)(c1ccccc1)c1ccccc1 [Pridinol methanesulfonate salt]				0.059	1.063	875.882	
CCCNC(C)C(=O)Nc1ccccc1C (stereo not drawn) [Prilocaine hydrochloride]							B-score binding assay (human NTCP [1]; [9]): -1.737; Ranking score (human NTCP [2]; [10]): 304.329; B-score functional assay (human NTCP [2]; [11]): 0.027
COc1cc(NC(C)CCCN)c2ncccc2c1 (stereo not drawn) [Primaquine diphosphate]				0.361	4.393	1046.51	
CCC1(c2ccccc2)C(=O)NCNC1=O [Primidone]	-0.009	1.471	845.018				
CCCN(CCC)S(=O)(=O)c1ccc(C(=O)O)cc1 [Probenecid]	0.597	-0.194	677.591				
CC(C)(Sc1cc(C(C)(C)C)c(O)c(C(C)(C)C)c1)Sc1cc(C(C)(C)C)c(O)c(C(C)(C)C)c1 [Probucol]				3.305	0.089	969.367	
CCN(CC)CCNC(=O)c1ccc(N)cc1 [Procainamide hydrochloride]	-0.246	0.646	672.44				
CCN(CC)CCOC(=O)c1ccc(N)cc1 [Procaine hydrochloride]							B-score binding assay (human NTCP [1]; [9]): 0.574; Ranking score (human NTCP [2]; [10]): 459.439; B-score functional assay (human NTCP [2]; [11]): -1.181
CNNCc1ccc(C(=O)NC(C)C)cc1 [Procarbazine hydrochloride]							B-score binding assay (human NTCP [1]; [9]): -0.424; Ranking score (human NTCP [2]; [10]): 345.534; B-score functional assay (human NTCP [2]; [11]): -0.792
[H]/N=C(\N/C(=N/[H])Nc1ccc(Cl)cc1)NC(C)C [Proguanil hydrochloride]							B-score binding assay (human NTCP [1]; [9]): -1.489; Ranking score (human NTCP [2]; [10]): 309.176; B-score functional assay (human NTCP [2]; [11]): -0.025
CN(C)CCCN1c2ccccc2Sc2ccccc21 [Promazine hydrochloride]							B-score binding assay (human NTCP [1]): -0.725; B-score functional assay (human NTCP [2]): 0.194; Ranking score (human NTCP [2]): 494.272
CC(CN1c2ccccc2Sc2ccccc21)N(C)C (stereo not drawn) [Promethazine hydrochloride]				1.811	-0.002	866.133	
CC(C)NCC(O)c1ccc2ccccc2c1.Cl (stereo not drawn) [Pronethalol hydrochloride]							B-score binding assay (human NTCP [1]; [9]): 0.008; Ranking score (human NTCP [2]; [10]): 409.31; B-score functional assay (human NTCP [2]; [11]): -0.999
